Data from paper PMC5432002, “The active site structure and catalytic mechanism of arsenite oxidase” (Scientific Reports, 2017).

Biological target: T1, NT-26 arsenite oxidase (NT-26 Aio) (Pseudorhizobium banfieldiae, UniProt Q6VAL8)
T1 construct: gene aroA; A subunit with Mo site and [3Fe-4S], B subunit with Rieske [2Fe-2S]; with Arsenite oxidase subunit AioB
Assay type: binding

O[As](O)O [arsenite]
Mo....As EXAFS interaction: suggesting the presence of bound substrate or product through a Mo—O—As linkage
